The values below are quoted from earlier work in patent US20130266557A1, “METHODS FOR TREATMENT OF A SARCOMA USING AN EPIMETABOLIC SHIFTER (COENZYME Q10)” (priority 2009, published 2013).

This series relates to cancer. As to conditions: Mazzio 2006; cited from earlier work.

With `COC1=C(OC)C(=O)C(C)=CC1=O` [DMBQ, 2,3-dimethoxy-5-methyl-1,4-benzoquinone, reference compound], the “Potency as an anti-cancer agent relative to CoQ10” value is recorded as above 1000 times.
